Laboratory results from patent publication US4649147A, “Treating elastin degradation with 1-(alkenoyl)azacycloalkyl carboxylic acids and derivatives” (G. D. Searle & Co., priority 1985, dated 1987).

How the values were obtained:
[1] = tested on: bleomycin-induced lung fibrosis; assay: Bleomycin-induced lung fibrosis in male syrian hamsters; type: in vivo, syrian hamster; conditions: 100 mg/kg, day 21 relative to untreated animals
Excerpt: The procedure described by Kelley et al., J. Lab. Clin. Med., 96, 954-964 (1980), is used to test the compounds in vivo for activity against bleomycin-induced lung fibrosis in male syrian hamsters. […] Activities are reported as percent inhibitions at day 21 relative to untreated animals.

[2] = target: T1, human leukocyte elastase (Homo sapiens, UniProt P08246); assay: Inhibition of hydrolysis of methoxysuccinyl-ala-ala-pro-val-nitroanilide by human leukocyte elastase; type: biochemical; conditions: for IC50: human leukocyte elastase, MSN substrate
T1 sequence (P08246 30-267): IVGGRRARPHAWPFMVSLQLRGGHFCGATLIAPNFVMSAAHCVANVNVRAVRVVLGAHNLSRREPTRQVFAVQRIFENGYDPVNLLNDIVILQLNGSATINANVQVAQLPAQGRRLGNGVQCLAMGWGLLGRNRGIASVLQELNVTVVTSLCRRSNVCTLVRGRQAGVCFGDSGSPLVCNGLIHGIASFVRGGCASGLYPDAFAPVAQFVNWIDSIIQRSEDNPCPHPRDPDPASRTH
Excerpt: The compounds useful in practicing the method of the invention are inhibitors of leucocyte elastase and cathepsin G. Since elastase is involved in the breakdown of elastin and subsequently involved in a number of disease states, a compound which blocks the action of elastase will be useful in the management, treatment and prevention of such diseases. […] Nakajima, K., et al., J. Biol. Chem., 254, 4027 (1979). This is useful in measuring inhibition of elastase because the hydrolysis of MSN is easily quantitated by measuring the release of p-nitroaniline spectrophotometrically. Therefore, the degree of elastase inhibition can be readily measured by noting the rate of inhibition of the hydrolysis of MSN. The compounds of the invention are therefore tested in vitro as follows. The rate of hydrolysis of methoxysuccinyl-ala-ala-pro-val-nitroanalide by human leukocyte elastase is monitored spectrophotometrically in the presence and absence of test compound. The inhibition of the enzymatic reaction by 20% or more at a given concentration of test compound is taken as positive inhibition of elastase. IC50 values are then determined.

[3] = target: mammalian prolyl-4-hydroxylase (Homo sapiens, UniProt P13674); assay: In vitro prolyl-4-hydroxylase inhibition; type: biochemical; conditions: purified mammalian enzyme
Sequence of mammalian prolyl-4-hydroxylase (P13674 18-534): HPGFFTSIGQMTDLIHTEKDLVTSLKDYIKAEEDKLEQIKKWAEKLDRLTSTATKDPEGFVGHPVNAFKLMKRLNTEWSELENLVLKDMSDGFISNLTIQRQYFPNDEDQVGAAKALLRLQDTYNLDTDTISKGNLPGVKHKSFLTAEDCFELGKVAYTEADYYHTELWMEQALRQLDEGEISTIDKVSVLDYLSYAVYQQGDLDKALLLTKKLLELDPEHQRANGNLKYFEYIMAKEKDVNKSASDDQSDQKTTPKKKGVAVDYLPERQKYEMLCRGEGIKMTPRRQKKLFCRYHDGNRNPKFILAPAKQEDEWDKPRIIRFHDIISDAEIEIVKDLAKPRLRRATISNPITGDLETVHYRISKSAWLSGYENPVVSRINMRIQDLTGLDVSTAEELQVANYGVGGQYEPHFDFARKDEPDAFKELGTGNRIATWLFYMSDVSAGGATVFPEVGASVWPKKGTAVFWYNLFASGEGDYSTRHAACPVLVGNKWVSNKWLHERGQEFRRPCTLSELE
Sequence of mammalian prolyl-4-hydroxylase (P07237 18-508 partner): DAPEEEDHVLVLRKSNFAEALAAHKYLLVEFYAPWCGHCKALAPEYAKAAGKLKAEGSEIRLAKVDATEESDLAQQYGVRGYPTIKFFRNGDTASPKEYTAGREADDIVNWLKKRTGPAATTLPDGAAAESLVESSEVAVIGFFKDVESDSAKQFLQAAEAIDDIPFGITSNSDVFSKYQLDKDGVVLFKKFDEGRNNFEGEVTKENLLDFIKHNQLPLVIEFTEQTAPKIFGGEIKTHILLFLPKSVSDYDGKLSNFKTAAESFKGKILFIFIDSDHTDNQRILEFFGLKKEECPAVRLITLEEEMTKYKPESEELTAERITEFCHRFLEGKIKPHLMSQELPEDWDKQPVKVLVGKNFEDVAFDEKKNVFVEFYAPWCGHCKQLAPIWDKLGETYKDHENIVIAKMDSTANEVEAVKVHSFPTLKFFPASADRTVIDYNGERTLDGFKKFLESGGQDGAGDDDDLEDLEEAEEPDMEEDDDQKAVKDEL
Excerpt: Fibrosis is a connective tissue disease characterized by overaccumulation of extracellular fibrous matrix components, particularly collagen. Since prolyl hydroxylation is required for active secretion and thermal stability of collagen, fibrosis could be treated by inhibitors of prolyl-4-hydroxylase, such as the compounds of this invention. See G. C. Fuller, J. Med. Chem., 24, 651-658 (1981). The following procedure is used to test the compounds in vitro for prolyl-4-hydroxylase inhibition.
Purified mammalian prolyl-4-hydroxylase [EC 1.14.11.2:prolyl-glycyl-peptide, 2-oxyglutarate: oxidoreductase] is incubated with substrates (i.e., native unhydroxylated collagen of either 60,000 molecular weight, Km 10^-8 M; or 90,000 molecular weight, Km 10^-11 M), α-ketoglutarate, oxygen, and enzyme cofactors, with or without the test compounds. End-point is determined by measuring release of tritiated water during the hydroxylation of H^3 -peptidyl proline or release of ^14 CO2 formed from the coupled decarboxylation of ^14 C-α-ketoglutarate. Data are reported as percent inhibition with test compound at a given concentration relative to the control assays without test compound.

Structure (SMILES) | IC50 [2] | IC50 [3] | other results
CCCCCCCC/C=C\CCCCCCCC(=O)N1CCC[C@H]1C(=O)OC [Example 6, 1-(1-oxo-9Z-octadecenyl)proline methyl ester] |  |  | Bleomycin-induced Fibrosis, % Inhib. of Hydroxyproline [1]: 30.1%; Bleomycin-induced Fibrosis, % Inhib. of Lung wt./body wt. [1]: 33.0%
CCCCCCCC/C=C\CCCCCCCC(=O)N1CCCC(C(=O)O)C1 (stereo not shown) [Example 2, 1-(1-oxo-9Z-ocadecenyl)-3-piperidinecarboxylic acid] | 3.4 µM | 5.9 µM | 
CCCCCCCC/C=C\CCCCCCCC(=O)N1CCC(C(=O)O)(c2ccccc2)CC1 [Example 5, 1-(1-oxo-9Z-octadecenyl)-4-phenyl-4-piperidinecarboxylic acid] | 1.2 µM |  | 
CCCCCCCC/C=C\CCCCCCCC(=O)N1CCC(C(=O)OCC)(c2ccccc2)CC1 [Example 4, ethyl 1-(1-oxo-9Z-octadecenyl)-4-phenyl-4-piperidinecarboxylate] |  |  | inhibition against elastase ([2]; at 20 mcM): 22%
CCCCCCCC/C=C\CCCCCCCC(=O)N1CCC(C(=O)O)CC1 [Example 3, 1-(1-oxo-9Z-octadecenyl)-4-piperidinecarboxylic acid] | 4.6 µM | 9 µM | 
CCCCCCCC/C=C\CCCCCCCC(=O)N1CCC[C@H]1C(=O)O [Example 1, 1-(1-oxo-9Z-octadecenyl)proline] | 7.8 µM | 4.4 µM | 
